Tests used:
Format in all cases: in vivo
Details in all cases: 100 = 100% disease control, 0 = no control
[1] = test system: Phakopsora pachyrhizi; experiment: Test D: Asian soybean rust, preventive spray on soybean seedlings
Source text: (§1) General protocol for preparing test suspensions for Tests A-F: the test compounds were first dissolved in acetone in an amount equal to 3% of the final volume and then suspended at the desired concentration (in ppm) in acetone and purified water (50/50 mix by volume) containing 250 ppm of the surfactant PEG400 (polyhydric alcohol esters). The resulting test suspensions were then used in Tests A-F.
(§2) The test solution was sprayed to the point of run-off on soybean seedlings. The following day the seedlings were inoculated with a spore suspension of Phakopsora pachyrhizi (the causal agent of Asian soybean rust) and incubated in a saturated atmosphere at 22° C. for 24 h and then moved to a growth chamber at 22° C. for 8 days, after which time visual disease ratings were made.
(§3) A rating of 100 indicates 100% disease control and a rating of 0 indicates no disease control (relative to the controls). A dash (-) indicates the compound was not tested.

[2] = test system: Blumeria graminis f. sp. tritici; experiment: Test C: wheat powdery mildew, preventive spray on wheat seedlings
Source text: as §1
The test suspension was sprayed to the point of run-off on wheat seedlings. The following day the seedlings were inoculated with a spore dust of Blumeria graminis f. sp. tritici, (also known as Eysiphe graminis f. sp. tritici, the causal agent of wheat powdery mildew) and incubated in a growth chamber at 20° C. for 8 days, after which time visual disease ratings were made.
as §3

[3] = test system: Alternaria solani; experiment: Test F: tomato early blight, preventive spray on tomato seedlings
Source text: as §1
(§4) The test suspension was sprayed to the point of run-off on tomato seedlings. The following day the seedlings were inoculated with a spore suspension of Alternaria solani (the causal agent of tomato early blight) and incubated in a saturated atmosphere at 27° C. for 48 h, and then moved to a growth chamber at 20° C. for 3 days, after which time visual disease ratings were made.
as §3

[4] = test system: Puccinia recondita f. sp. tritici; experiment: Test B: wheat leaf rust, preventive spray on wheat seedlings
Source text: as §1
as §2, with “on wheat” for “on soybean”, “of Puccinia recondita f. sp. tritici” for “of Phakopsora pachyrhizi”, “of wheat leaf” for “of Asian soybean”, “at 20°” for “at 22°”, “24 h,” for “24 h”, “for 7” for “for 8”
as §3

[5] = test system: Botrytis cinerea; experiment: Test E: tomato Botrytis, preventive spray on tomato seedlings
Source text: as §1
as §4, with “Botrytis cinerea” for “Alternaria solani”, “Botrytis)” for “early blight)”, “20°” for “27°”, “24°” for “20°”
as §3

[6] = test system: Zymoseptoria tritici; experiment: Test A: wheat leaf blotch, preventive spray on wheat seedlings
Source text: as §1
The test solution was sprayed to the point of run-off on wheat seedlings. The following day the seedlings were inoculated with a spore suspension of Zymoseptoria tritici (the causal agent of wheat leaf blotch) and incubated in a saturated atmosphere at 24° C. for 48 h, and then moved to a growth chamber at 20° C. for 17 days, after which time disease ratings were made.
as §3

[7] = Phakopsora pachyrhizi, 216 h, 50 ppm, read-out: Test D disease control rating
[8] = Blumeria graminis, 50 ppm, read-out: Test C disease control rating
[9] = Alternaria solani, 50 ppm, read-out: Test F disease control rating
[10] = Puccinia recondita, 50 ppm, read-out: Test B disease control rating
[11] = Botrytis cinerea, 50 ppm, read-out: Test E disease control rating
[12] = Zymoseptoria tritici, 50 ppm, read-out: Test A disease control rating

SMILES	Test D disease control rating ([1]; 50 ppm) [%]	Test C disease control rating ([2]; 50 ppm) [%]	Test F disease control rating ([3]; 50 ppm) [%]	Test B disease control rating ([4]; 50 ppm) [%]	Test E disease control rating ([5]; 50 ppm) [%]	Test A disease control rating ([6]; 50 ppm) [%]	also measured
COc1cc(-c2cn(C)c(=O)c(Cl)c2-c2ccc(F)cc2Cl)cc(OC)c1Cl [Compound 5, 3-chloro-5-(4-chloro-3,5-dimethoxyphenyl)-4-(2-chloro-4-fluorophenyl)-1-methyl-2(1H)-pyridinone]							pest or weed control at 250 ppm ([1]; Phakopsora pachyrhizi, 216 h, 250 ppm, read-out: Test D disease control rating): 78%; pest or weed control at 250 ppm ([2]; Blumeria graminis, 250 ppm, read-out: Test C disease control rating): 0%; pest or weed control at 250 ppm ([3]; Alternaria solani, 250 ppm, read-out: Test F disease control rating): 99%; pest or weed control at 250 ppm ([4]; Puccinia recondita, 250 ppm, read-out: Test B disease control rating): 100%; pest or weed control at 250 ppm ([5]; Botrytis cinerea, 250 ppm, read-out: Test E disease control rating): 98%; pest or weed control at 250 ppm ([6]; Zymoseptoria tritici, 250 ppm, read-out: Test A disease control rating): 100%
C=CCn1cc(-c2cc(OC)ccc2Cl)c(-c2ccc(F)cc2Cl)c(Cl)c1=O [Compound 77]	0	0	0	74	91	40	
COc1ccc(Cl)c(-c2cn(C)c(=O)c(Cl)c2-c2ccc(F)cc2Cl)c1 [Compound 32, 3-chloro-4-(2-chloro-4-fluorophenyl)-5-(2-chloro-5-methoxyphenyl)-1-methyl-2(1H)-pyridinone]							pest or weed control at 50 ppm [1, 7]: 99%; pest or weed control at 50 ppm [2, 8]: 99%; pest or weed control at 50 ppm [3, 9]: 100%; pest or weed control at 50 ppm [4, 10]: 100%; pest or weed control at 50 ppm [5, 11]: 100%; pest or weed control at 50 ppm [6, 12]: 100%
Cn1cc(-c2ccccc2)c(-c2c(F)cccc2F)c(Cl)c1=O [Compound 11]	0	0	94	80	97	99	
COc1ccc(-c2cc(=O)n(C)cc2-c2cc(OC)ccc2Cl)c(Cl)c1 [Compound 68]	0	0	73	98	88	61	
CCc1c(-c2ccc(F)cc2Cl)c(-c2cc(F)ccc2Cl)cn(C)c1=O [Compound 23]	0	99	83	100	69	100	
COc1cc(OC)cc(-c2cn(C)c(=O)c(Cl)c2-c2ccc(F)cc2F)c1 [Compound 25]	84	0	99	100	82	100	
COc1cc(OC)c(Cl)c(-c2cn(OC)c(=O)c(Cl)c2-c2ccc(F)cc2Cl)c1 [Compound 22, 3-chloro-4-(2-chloro-4-fluorophenyl)-5-(2-chloro-3,5-dimethoxyphenyl)-1-methoxy-2(1H)-pyridinone]							pest or weed control at 50 ppm [1, 7]: 97%; pest or weed control at 50 ppm [2, 8]: 76%; pest or weed control at 50 ppm [3, 9]: 99%; pest or weed control at 50 ppm [4, 10]: 100%; pest or weed control at 50 ppm [5, 11]: 98%; pest or weed control at 50 ppm [6, 12]: 99%
Cn1cc(-c2cc(F)ccc2Cl)c(-c2ccc(F)cc2Cl)c(I)c1=O [Compound 2]	0	0	33	98	91	100	
COc1cc(OC)cc(-c2cn(C)c(=O)c(C)c2-c2ccc(F)cc2Cl)c1 [Compound 12]	83	40	99	99	92	100	
COc1cc(-c2cn(C)c(=O)c(Cl)c2-c2ccc(F)cc2F)ccc1Br [Compound 21]	0	0	91	96	94	70	
COc1ccc(Cl)c(-c2cn(C)c(=O)c(Cl)c2-c2cccc(F)c2F)c1 [Compound 64]	87	87	100	100	96	98	
Cn1cc(-c2cc(F)ccc2Cl)c(-c2ccc(F)cc2Cl)c(Cl)c1=O [Compound 1]	0	0	46	100	98	100	
Cn1cc(-c2ccc(F)cc2Cl)c(-c2c(F)cccc2F)c(Cl)c1=O [Compound 16]	68	0	31	97	96	100	
COc1ccc(Cl)c(-c2cn(C)c(=O)c(Cl)c2-c2ccc(F)cc2Br)c1 [Compound 71]	73	100	99	100	96	100	
COc1cc(OC)c(Cl)c(-c2cn(OCC(F)F)c(=O)c(Cl)c2-c2ccc(F)cc2Cl)c1 [Compound 37]	87	0	0	99	88	68	
Cn1cc(-c2ccccc2C(F)(F)F)c(-c2ccc(F)cc2Cl)c(Cl)c1=O [Compound 27]	25	0	0	100	58	98	
Cn1cc(-c2cc(F)ccc2Cl)c(-c2ccc(F)cc2Cl)c(C#N)c1=O [Compound 14]	0	0	0	100	96	100	
COc1cccc(-c2cn(C)c(=O)c(Cl)c2-c2ccc(F)cc2F)c1 [Compound 8]							Test D disease control rating ([1]; 250 ppm): 81%; Test C disease control rating ([2]; 250 ppm): 98%; Test F disease control rating ([3]; 250 ppm): 99%; Test B disease control rating ([4]; 250 ppm): 100%; Test E disease control rating ([5]; 250 ppm): 99%; Test A disease control rating ([6]; 250 ppm): 100%
COc1ccc(Cl)c(-c2cn(C)c(=O)cc2-c2ccc(Br)cc2Cl)c1 [Compound 58]	0	0	0	55	90	98	
COc1ccc(Cl)c(-c2cn(C)c(=O)cc2-c2cccc(F)c2F)c1 [Compound 65]	0	0	0	95	96	8	
